Patent US5571816A, “Pyrimidines” (Hoechst Aktiengesellschaft, priority 1992, dated 1996)
Structures can show the parent of a compound that is named as a salt. Where two headings read alike, the source gives them in different places.

Tests used:
[1] = system: serum lipoproteins; assay: Effect on serum lipoproteins of normolipemic male rats in a subchronic experiment; type: in vivo; conditions: Rattus norvegicus, po, by stomach tube, 7 administrations; for change in vivo at 100 mg/kg: 100 mg/kg/day; for change in vivo at 3 mg/kg: 3 mg/kg/day; for change in vivo at 10 mg/kg: 10 mg/kg/day; for change in vivo at 30 mg/kg: 30 mg/kg/day
Procedure: 3. In vivo, the increased LDL receptor activity in experimental animals is reflected by reduction in the lipoprotein fractions which can be metabolized by the LDL receptor (apoB/E receptor), i.e. a reduction in the LDL and VLDL levels is observed. The following test was carried out:
Effect on serum lipoproteins of normolipemic male rats in a subchronic experiment
Groups of in each case 10 male rats of the HOE: WISKf (SPF 71) strain with an initial weight above 180 g received once a day (in the morning) the test product or the comparison product in 1% aqueous ®Tylose MH 300 solution by stomach tube (0.5 ml/100 g of body weight); the control group in each case received only the vehicle. The last (7th) administration took place 24 hours before removal of blood and sacrifice. There was free access to food and water during the test. The food was withdrawn 24 hours before the removal of blood.
The serum from all 10 rats in a group was pooled for the analysis of the serum lipoproteins. The serum lipoproteins were separated with a preparative ultracentrifuge (KONTRON TGA 65, Rotor BECKMAN 50.4 Ti).
The following conditions specified by Koga, S., Horwitz, D. L., and Scanu, A. M., Journal of Lipid Research 10, 577 (1969) and Havel, R. J., Eder, H. A., and Bragdon, H. H., J. Clin. Invest. 34, 1345 (1955) were used to separate VLDL and LDL: 1. VLDL: Density<1.006, 40,000 rpm for 16 hours 2. LDL: Density 1.006-1.04, 40,000 rmp for 16 hours
Test kits from BOEHRINGER/Mannheim were used for the enzymatic determination of cholesterol and triglycerides in the separated lipoprotein fractions (cf. Siedel, J., Schlumberger, H., Klose, S., Ziegenhorn, J. and Wahlefeld, A. W., J. Clin. Chem. Clin. Biochem. 19, 838 (1981) and Wahlefeld, A. W., in: H. O. Bergmeier: Methoden der enzymatischen Analyse (Methods of Enzymatic Analysis), 2nd edition, Volume II, Verlag Chemie 1974, page 1878). The proteins were determined by the method of Lowry (Lowry, O. H., Roseborough, N. H., Farr, A. L. and Randell, R. J., J. Biol. Chem. 193, 265 (1951)).
Clofibrate was used as comparison product.

[2] = Solubility in water of salts (and free bases); type: physicochemical; conditions: for solubility: water
[3] = read-out: Serum LDL cholesterol, % change from control at end of treatment
[4] = read-out: Serum LDL protein, % change from control at end of treatment
[5] = read-out: Serum VLDL cholesterol, % change from control at end of treatment
[6] = read-out: Serum VLDL protein, % change from control at end of treatment
[7] = read-out: Serum VLDL triglycerides, % change from control at end of treatment
[8] = Table 1, N-H analogs, temp. by No. [°C]: 1 25.0, 2 23.0, 3 26.2, 4 25.1, 5 25.2, 6 24.1, 7 24.5, 8 24.2, 9 24.2, 10 25.7, 11 25.8
[9] = Table 1, N-H analogs, temp. by No. [°C]: 1 25.0, 2 23.0, 3 26.2, 4 25.1, 5 25.2, 6 24.1, 7 24.5, 8 24.2, 9 24.2, 10 25.7, 11 25.8, read-out: Solubility in water, Concentration in % by wt.
[10] = Table 1, N-H analogs, temp. by No. [°C]: 1 25.0, 2 23.0, 3 26.2, 4 25.1, 5 25.2, 6 24.1, 7 24.5, 8 24.2, 9 24.2, 10 25.7, 11 25.8, read-out: Solubility in water, Molarity × 10^-3
[11] = Table 2, salts of compounds I, temp. by No. [°C]: 1 25.5, 2 23.0, 3 22.4, 4 22.4, 5 22.0, 6 25.0, 7 25.5, 8 25.5, 9 25.5, 10 23.5, 11 23.5, 12 25.0, 13 24.0, 14 23.0, 15 22.0, 16 24.5, 17 22.5, 18 22.0, nitrate

CCOC(=O)C(C)(C)Oc1ccc(Cl)cc1 [Clofibrate, reference compound]
change in vivo at 100 mg/kg [1, 3]: -31% | change in vivo at 100 mg/kg [1, 4]: -3% | change in vivo at 100 mg/kg [1, 5]: -51% | change in vivo at 100 mg/kg [1, 6]: -30% | change in vivo at 100 mg/kg [1, 7]: -34%

CC1NC(=O)N(c2ncc(C(=O)Nc3cccc(C(F)(F)F)c3)c(N)n2)C1C (centres unmarked) [No. 11 (Table 1), reference compound]
1 part by mass dissolves in ... parts of H2O [2, 8]: 277 parts of H2 O | solubility [2, 9]: 3600 µg/mL | solubility [2, 10]: 8380 µM

CC1(C)CN(c2ncc(C(=O)Nc3cccc(C(F)(F)F)c3)c(N)n2)C(=O)N1 [4-amino-2-(4,4-dimethylimidazolidin-2-on-1-yl)pyrimidine-5-carboxylic acid N-(3-trifluoromethylphenyl)amide, reference compound]
solubility in water, in words ([2]; categories of the Deutsches Arzneibuch): exceptionally slightly soluble

CCCCN(C(=O)c1cnc(N2CC(C)(C)NC2=O)nc1N)c1cccc(C(F)(F)F)c1 [Example 6, 4-amino-2-(4,4-dimethyl-2-oxo-1-imidazolidinyl)pyrimidine-5-carboxylic acid N-butyl-N-(3-trifluromethylphenyl)amide hydrochloride]
change in vivo at 3 mg/kg [1, 3]: -24% | change in vivo at 3 mg/kg [1, 4]: -3% | change in vivo at 3 mg/kg [1, 5]: -35% | change in vivo at 3 mg/kg [1, 6]: -12% | change in vivo at 10 mg/kg [1, 3]: -20% | change in vivo at 10 mg/kg [1, 4]: -62% | change in vivo at 10 mg/kg [1, 5]: -35% | change in vivo at 10 mg/kg [1, 6]: -15% | change in vivo at 30 mg/kg [1, 3]: -62% | change in vivo at 30 mg/kg [1, 4]: -36% | change in vivo at 30 mg/kg [1, 5]: 41% | change in vivo at 30 mg/kg [1, 6]: -41% | change in vivo at 30 mg/kg [1, 7]: -69%

CN(C(=O)c1cnc(N2CC(C)(C)NC2=O)nc1N)c1cc(C(F)(F)F)ccc1Cl [Example 29]
change in vivo at 30 mg/kg [1, 3]: -51% | change in vivo at 30 mg/kg [1, 4]: -27% | change in vivo at 30 mg/kg [1, 5]: -80% | change in vivo at 30 mg/kg [1, 6]: 40% | change in vivo at 30 mg/kg [1, 7]: -70%

CN(C(=O)c1cnc(N2CC(C)(C)NC2=O)nc1N)c1ccc(Br)c(C(F)(F)F)c1 [Example 30]
change in vivo at 10 mg/kg [1, 3]: -25% | change in vivo at 10 mg/kg [1, 4]: -19% | change in vivo at 10 mg/kg [1, 5]: -29% | change in vivo at 10 mg/kg [1, 6]: -36% | change in vivo at 10 mg/kg [1, 7]: 7%

CC(C)CN(C(=O)c1cnc(N2CC(C)NC2=O)nc1N)c1cccc(C(F)(F)F)c1 (centres unmarked) [Example 114]
1 part by mass dissolves in ... parts by H2O ([2]; Table 2, salts of compounds I, temp. by No. [°C]: 1 25.5, 2 23.0, 3 22.4, 4 22.4, 5 22.0, 6 25.0, 7 25.5, 8 25.5, 9 25.5, 10 23.5, 11 23.5, 12 25.0, 13 24.0, 14 23.0, 15 22.0, 16 24.5, 17 22.5, 18 22.0): 24.7 parts by H2 O | solubility ([2]; Table 2, salts of compounds I, temp. by No. [°C]: 1 25.5, 2 23.0, 3 22.4, 4 22.4, 5 22.0, 6 25.0, 7 25.5, 8 25.5, 9 25.5, 10 23.5, 11 23.5, 12 25.0, 13 24.0, 14 23.0, 15 22.0, 16 24.5, 17 22.5, 18 22.0, read-out: Solubility in water, Concentration in % by wt.): 38900 µg/mL

COc1ccc(NC(=O)c2cnc(N3CC(C)(C)NC3=O)nc2N)cc1C(F)(F)F [No. 7 (Table 1), reference compound]
1 part by mass dissolves in ... parts of H2O [2, 8]: 554 parts of H2 O | solubility [2, 9]: 1800 µg/mL | solubility [2, 10]: 3920 µM

CC1(C)CN(c2ncc(C(=O)Nc3cccc(C(F)(F)F)c3)c(N)n2)C(=O)N1 [No. 1 (Table 1), hydrochloride of 4-amino-2-(4,4-dimethylimidazolidin-2-on-1-yl)pyrimidine-5-carboxylic acid N-(3-trifluoromethylphenyl)amide, reference compound]
solubility ([2]; 23° C., read-out: 1 part by mass dissolves in parts of water (converted)): 400 µg/mL | solubility ([2]; 23° C., read-out: solution that can be prepared in water): 930 µM | solubility [2, 9]: 400 µg/mL | solubility [2, 10]: 930 µM

CCCC1(C)CN(c2ncc(C(=O)Nc3cc(C(F)(F)F)ccc3Cl)c(N)n2)C(=O)N1 (centres unmarked) [No. 8 (Table 1), reference compound]
1 part by mass dissolves in ... parts of H2O [2, 8]: 781 parts of H2 O | solubility [2, 9]: 1300 µg/mL | solubility [2, 10]: 2590 µM

CC1(C)CN(c2ncc(C(=O)N(CC3CC3)c3cc(C(F)(F)F)ccc3F)c(N)n2)C(=O)N1 [Example 41]
change in vivo at 10 mg/kg [1, 3]: -73% | change in vivo at 10 mg/kg [1, 4]: -48% | change in vivo at 10 mg/kg [1, 5]: -100% | change in vivo at 10 mg/kg [1, 6]: -52% | change in vivo at 10 mg/kg [1, 7]: -68% | change in vivo at 30 mg/kg [1, 3]: -66% | change in vivo at 30 mg/kg [1, 4]: -36% | change in vivo at 30 mg/kg [1, 5]: -100% | change in vivo at 30 mg/kg [1, 6]: -45% | change in vivo at 30 mg/kg [1, 7]: -80%

CC1(C)CN(c2ncc(C(=O)Nc3cccc(C(F)(F)F)c3)c(N)n2)C(=O)N1 [No. 2 (Table 1), reference compound]
Solubility in water, Molarity × 10^-3 [2, 8]: 0.90 Molarity × 10^-3

CCN(C(=O)c1cnc(N2CC(C)(C)NC2=O)nc1N)c1cc(C(F)(F)F)ccc1F [Example 60, 4-amino-2-(4,4-dimethyl-2-oxo-1-imidazolidinyl)pyrimidine-5-carboxylic acid N-ethyl-N-(2-fluoro-5-trifluoromethylphenyl)amide nitrate]
1 part by mass dissolves in ... parts by H2O [2, 11]: 57.5 parts by H2 O | Solubility in water, Concentration in % by wt. [2, 11]: 1.71 % by wt. | solubility ([2]; temperature not stated, read-out: soluble in a concentration in water): 17000 µg/mL

CC(C)CN(C(=O)c1cnc(N2CC(C)(C)NC2=O)nc1N)c1cccc(C(F)(F)F)c1 [Example 36]
change in vivo at 30 mg/kg [1, 3]: -38% | change in vivo at 30 mg/kg [1, 4]: -5% | change in vivo at 30 mg/kg [1, 5]: -65% | change in vivo at 30 mg/kg [1, 6]: -33% | change in vivo at 30 mg/kg [1, 7]: 42%

CCCCN(C(=O)c1cnc(N2CCNC2=O)nc1N)c1cccc(C(F)(F)F)c1 [Example 55, 4-amino-2-(2-oxo-1-imidazolidinyl)pyrimidine-5-carboxylic acid N-butyl-N-(3-trifluoromethylphenyl)amide hydrochloride]
change in vivo at 30 mg/kg [1, 3]: -29% | change in vivo at 30 mg/kg [1, 4]: -9% | change in vivo at 30 mg/kg [1, 5]: -14% | change in vivo at 30 mg/kg [1, 6]: -18% | change in vivo at 30 mg/kg [1, 7]: -20%
